According to ChEMBL document CHEMBL1137480, “Synthesis and structure-activity relationship of 7-(substituted)-aminomethyl-4-quinolone-3-carboxylic acid derivatives” (2007):
Values after ≈ are worked out from the molar mass of the structure shown.

Legend:
Assay type in all cases: functional
Staphylococcus aureus = experiment: Antibacterial activity against Staphylococcus aureus 26003 after 24 hrs by agar dilution method
Salmonella = experiment: Antibacterial activity against […] 48107 after 24 hrs by agar dilution method
[1] = tested on: Staphylococcus epidermidis; experiment: Antibacterial activity against Staphylococcus epidermidis 26069 after 24 hrs by agar dilution method
Klebsiella pneumoniae = experiment: Antibacterial activity against Klebsiella pneumoniae 46101 after 24 hrs by agar dilution method
Shigella boydii = experiment: Antibacterial activity against Shigella boydii 51313 after 24 hrs by agar dilution method
Streptococcus pneumoniae = experiment: Antibacterial activity against Streptococcus pneumoniae 31002 after 24 hrs by agar dilution method

In the case of CC(C)NCc1c(F)cc2c(=O)c(C(=O)O)cn3c2c1OC[C@@H]3C, the MIC (Staphylococcus aureus) was greater than 6.25 µg/mL, the MIC (Salmonella) was 0.39 µg/mL (≈ 1.17 µM) and the MIC [1] was greater than 6.25 µg/mL. It also gave an MIC (Klebsiella pneumoniae) of 0.195 µg/mL (≈ 0.583 µM), an MIC (Shigella boydii) of 0.39 µg/mL (≈ 1.17 µM) and an MIC (Streptococcus pneumoniae) of 3.13 µg/mL (≈ 9.36 µM).
C[C@H]1COc2c(CNC3CC3)c(F)cc3c(=O)c(C(=O)O)cn1c23 showed an MIC (Staphylococcus aureus) of 3.13 µg/mL (≈ 9.42 µM), an MIC (Salmonella) of 0.049 µg/mL (≈ 0.147 µM) and an MIC [1] greater than 6.25 µg/mL. For the same compound, the MIC (Klebsiella pneumoniae) was 0.049 µg/mL (≈ 0.147 µM), the MIC (Shigella boydii) was 0.049 µg/mL (≈ 0.147 µM) and the MIC (Streptococcus pneumoniae) was 0.39 µg/mL (≈ 1.17 µM).
Work on C[C@H]1COc2c(CN3CCCC3)c(F)cc3c(=O)c(C(=O)O)cn1c23 yielded an MIC (Staphylococcus aureus) of 6.25 µg/mL (≈ 18 µM), an MIC (Salmonella) of 0.098 µg/mL (≈ 0.283 µM) and an MIC [1] greater than 6.25 µg/mL. For the same compound, the MIC (Klebsiella pneumoniae) was 0.049 µg/mL (≈ 0.141 µM), the MIC (Shigella boydii) was 0.39 µg/mL (≈ 1.13 µM) and the MIC (Streptococcus pneumoniae) was 0.78 µg/mL (≈ 2.25 µM).
Work on C[C@H]1COc2c(CN3CCCCC3)c(F)cc3c(=O)c(C(=O)O)cn1c23 yielded an MIC (Staphylococcus aureus) greater than 6.25 µg/mL, an MIC (Salmonella) of 0.39 µg/mL (≈ 1.08 µM) and an MIC [1] greater than 6.25 µg/mL. The MIC (Klebsiella pneumoniae) was 0.195 µg/mL (≈ 0.541 µM), the MIC (Shigella boydii) was 0.78 µg/mL (≈ 2.16 µM) and the MIC (Streptococcus pneumoniae) was 1.56 µg/mL (≈ 4.33 µM).
C[C@H]1COc2c(CN3CCNCC3)c(F)cc3c(=O)c(C(=O)O)cn1c23 was tested, and the MIC (Staphylococcus aureus) was greater than 6.25 µg/mL, the MIC (Salmonella) was greater than 6.25 µg/mL and the MIC [1] was greater than 6.25 µg/mL. It also gave an MIC (Klebsiella pneumoniae) of 3.13 µg/mL (≈ 8.66 µM), an MIC (Shigella boydii) greater than 6.25 µg/mL and an MIC (Streptococcus pneumoniae) greater than 6.25 µg/mL.
C[C@H]1COc2c(CN3CCN(C)CC3)c(F)cc3c(=O)c(C(=O)O)cn1c23 gave an MIC (Staphylococcus aureus) greater than 6.25 µg/mL, an MIC (Salmonella) of 1.56 µg/mL (≈ 4.16 µM) and an MIC [1] greater than 6.25 µg/mL. The MIC (Klebsiella pneumoniae) was 0.78 µg/mL (≈ 2.08 µM), the MIC (Shigella boydii) was 1.56 µg/mL (≈ 4.16 µM) and the MIC (Streptococcus pneumoniae) was 1.56 µg/mL (≈ 4.16 µM).
For C[C@H]1COc2c(CNc3ccccc3)c(F)cc3c(=O)c(C(=O)O)cn1c23, the MIC (Staphylococcus aureus) was 1.56 µg/mL (≈ 4.23 µM), the MIC (Salmonella) was 0.78 µg/mL (≈ 2.12 µM) and the MIC [1] was 1.56 µg/mL (≈ 4.23 µM). For the same compound, the MIC (Klebsiella pneumoniae) was 0.78 µg/mL (≈ 2.12 µM), the MIC (Shigella boydii) was 0.39 µg/mL (≈ 1.06 µM) and the MIC (Streptococcus pneumoniae) was 0.098 µg/mL (≈ 0.266 µM).
C[C@H]1COc2c(CNc3ccc(Cl)cc3)c(F)cc3c(=O)c(C(=O)O)cn1c23 gave an MIC (Staphylococcus aureus) of 0.098 µg/mL (≈ 0.243 µM), an MIC (Salmonella) of 0.098 µg/mL (≈ 0.243 µM) and an MIC [1] of 0.098 µg/mL (≈ 0.243 µM). It also gave an MIC (Klebsiella pneumoniae) of 0.195 µg/mL (≈ 0.484 µM), an MIC (Shigella boydii) of 0.195 µg/mL (≈ 0.484 µM) and an MIC (Streptococcus pneumoniae) of no more than 0.049 µg/mL.
C[C@H]1COc2c(CNc3cccc(Cl)c3)c(F)cc3c(=O)c(C(=O)O)cn1c23 was tested, and the MIC (Staphylococcus aureus) was 1.56 µg/mL (≈ 3.87 µM), the MIC (Salmonella) was 6.25 µg/mL (≈ 15.5 µM) and the MIC [1] was 3.13 µg/mL (≈ 7.77 µM). The MIC (Klebsiella pneumoniae) was 6.25 µg/mL (≈ 15.5 µM), the MIC (Shigella boydii) was 1.56 µg/mL (≈ 3.87 µM) and the MIC (Streptococcus pneumoniae) was 0.195 µg/mL (≈ 0.484 µM).
C[C@H]1COc2c(CNc3ccc(F)cc3)c(F)cc3c(=O)c(C(=O)O)cn1c23 was tested, and the MIC (Staphylococcus aureus) was 0.78 µg/mL (≈ 2.02 µM), the MIC (Salmonella) was 0.78 µg/mL (≈ 2.02 µM) and the MIC [1] was 0.78 µg/mL (≈ 2.02 µM). It also gave an MIC (Klebsiella pneumoniae) of 0.78 µg/mL (≈ 2.02 µM), an MIC (Shigella boydii) of 0.78 µg/mL (≈ 2.02 µM) and an MIC (Streptococcus pneumoniae) of 0.049 µg/mL (≈ 0.127 µM).
With C[C@H]1COc2c(CNc3ccc(F)c(Cl)c3)c(F)cc3c(=O)c(C(=O)O)cn1c23 the MIC (Staphylococcus aureus) was 0.098 µg/mL (≈ 0.233 µM), the MIC (Salmonella) was 0.39 µg/mL (≈ 0.927 µM) and the MIC [1] was 0.195 µg/mL (≈ 0.463 µM). It also gave an MIC (Klebsiella pneumoniae) of 0.195 µg/mL (≈ 0.463 µM), an MIC (Shigella boydii) of 0.195 µg/mL (≈ 0.463 µM) and an MIC (Streptococcus pneumoniae) of no more than 0.049 µg/mL.
Cc1ccc(NCc2c(F)cc3c(=O)c(C(=O)O)cn4c3c2OC[C@@H]4C)cc1 showed an MIC (Staphylococcus aureus) of 0.78 µg/mL (≈ 2.04 µM), an MIC (Salmonella) of 1.56 µg/mL (≈ 4.08 µM) and an MIC [1] of 3.13 µg/mL (≈ 8.19 µM). For the same compound, the MIC (Klebsiella pneumoniae) was 3.13 µg/mL (≈ 8.19 µM), the MIC (Shigella boydii) was 0.78 µg/mL (≈ 2.04 µM) and the MIC (Streptococcus pneumoniae) was 0.098 µg/mL (≈ 0.256 µM).
Cc1ccc(NCc2c(F)cc3c(=O)c(C(=O)O)cn4c3c2OC[C@@H]4C)cc1C gave an MIC (Staphylococcus aureus) of 3.13 µg/mL (≈ 7.9 µM), an MIC (Salmonella) of 3.13 µg/mL (≈ 7.9 µM) and an MIC [1] of 3.13 µg/mL (≈ 7.9 µM). The MIC (Klebsiella pneumoniae) was 6.25 µg/mL (≈ 15.8 µM), the MIC (Shigella boydii) was 1.56 µg/mL (≈ 3.94 µM) and the MIC (Streptococcus pneumoniae) was 0.195 µg/mL (≈ 0.492 µM).
For Cc1cc(C)nc(NCc2c(F)cc3c(=O)c(C(=O)O)cn4c3c2OC[C@@H]4C)c1, the MIC (Staphylococcus aureus) was 0.78 µg/mL (≈ 1.96 µM), the MIC (Salmonella) was 0.78 µg/mL (≈ 1.96 µM) and the MIC [1] was 0.78 µg/mL (≈ 1.96 µM). It also gave an MIC (Klebsiella pneumoniae) of 0.39 µg/mL (≈ 0.981 µM), an MIC (Shigella boydii) of 0.195 µg/mL (≈ 0.491 µM) and an MIC (Streptococcus pneumoniae) of 0.195 µg/mL (≈ 0.491 µM).
With C[C@H]1COc2c(CN(C)c3ccc(F)cc3)c(F)cc3c(=O)c(C(=O)O)cn1c23 the MIC (Staphylococcus aureus) was 3.13 µg/mL (≈ 7.82 µM), the MIC (Salmonella) was 1.56 µg/mL (≈ 3.9 µM) and the MIC [1] was 3.13 µg/mL (≈ 7.82 µM). The MIC (Klebsiella pneumoniae) was 1.56 µg/mL (≈ 3.9 µM), the MIC (Shigella boydii) was 1.56 µg/mL (≈ 3.9 µM) and the MIC (Streptococcus pneumoniae) was 0.39 µg/mL (≈ 0.974 µM).
In the case of CNCc1c(F)cc2c(=O)c(C(=O)O)cn3c2c1OCC3C (stereo not drawn), the MIC (Staphylococcus aureus) was 3.13 µg/mL (≈ 10.2 µM), the MIC (Salmonella) was no more than 0.049 µg/mL and the MIC [1] was greater than 6.25 µg/mL. It also gave an MIC (Klebsiella pneumoniae) of 0.098 µg/mL (≈ 0.32 µM), an MIC (Shigella boydii) of 0.098 µg/mL (≈ 0.32 µM) and an MIC (Streptococcus pneumoniae) of 3.13 µg/mL (≈ 10.2 µM).
CC1COc2c(CNC3CC3)c(F)cc3c(=O)c(C(=O)O)cn1c23 (stereo not drawn) was tested, and the MIC (Staphylococcus aureus) was 3.13 µg/mL (≈ 9.42 µM), the MIC (Salmonella) was no more than 0.049 µg/mL and the MIC [1] was 3.13 µg/mL (≈ 9.42 µM). For the same compound, the MIC (Klebsiella pneumoniae) was no more than 0.049 µg/mL, the MIC (Shigella boydii) was no more than 0.049 µg/mL and the MIC (Streptococcus pneumoniae) was 0.39 µg/mL (≈ 1.17 µM).
In the case of CC1COc2c(CN3CCCC3)c(F)cc3c(=O)c(C(=O)O)cn1c23 (stereo not drawn), the MIC (Staphylococcus aureus) was greater than 6.25 µg/mL, the MIC (Salmonella) was 0.39 µg/mL (≈ 1.13 µM) and the MIC [1] was greater than 6.25 µg/mL. The MIC (Klebsiella pneumoniae) was 0.195 µg/mL (≈ 0.563 µM), the MIC (Shigella boydii) was 0.39 µg/mL (≈ 1.13 µM) and the MIC (Streptococcus pneumoniae) was 3.13 µg/mL (≈ 9.04 µM).
In the case of CC1COc2c(CN3CCCCC3)c(F)cc3c(=O)c(C(=O)O)cn1c23 (stereo not drawn), the MIC (Staphylococcus aureus) was greater than 6.25 µg/mL, the MIC (Salmonella) was 0.78 µg/mL (≈ 2.16 µM) and the MIC [1] was greater than 6.25 µg/mL. The MIC (Klebsiella pneumoniae) was 0.39 µg/mL (≈ 1.08 µM), the MIC (Shigella boydii) was 0.098 µg/mL (≈ 0.272 µM) and the MIC (Streptococcus pneumoniae) was 3.13 µg/mL (≈ 8.69 µM).
For CC1COc2c(CNc3ccc(Cl)cc3)c(F)cc3c(=O)c(C(=O)O)cn1c23 (stereo not drawn), the MIC (Staphylococcus aureus) was 0.195 µg/mL (≈ 0.484 µM), the MIC (Salmonella) was 1.56 µg/mL (≈ 3.87 µM) and the MIC [1] was 0.78 µg/mL (≈ 1.94 µM). For the same compound, the MIC (Klebsiella pneumoniae) was greater than 6.25 µg/mL, the MIC (Shigella boydii) was 1.56 µg/mL (≈ 3.87 µM) and the MIC (Streptococcus pneumoniae) was no more than 0.049 µg/mL.
Compound CC1COc2c(Cn3ccnc3)c(F)cc3c(=O)c(C(=O)O)cn1c23 (stereo not drawn) has an MIC (Staphylococcus aureus) of 3.13 µg/mL (≈ 9.12 µM), an MIC (Salmonella) of 0.39 µg/mL (≈ 1.14 µM) and an MIC [1] of 3.13 µg/mL (≈ 9.12 µM). The MIC (Klebsiella pneumoniae) was 0.195 µg/mL (≈ 0.568 µM), the MIC (Shigella boydii) was 0.78 µg/mL (≈ 2.27 µM) and the MIC (Streptococcus pneumoniae) was 0.78 µg/mL (≈ 2.27 µM).
Work on C[C@H]1COc2c(N3CCN(C)CC3)c(F)cc3c(=O)c(C(=O)O)cn1c23.C[C@H]1COc2c(N3CCN(C)CC3)c(F)cc3c(=O)c(C(=O)O)cn1c23.O [LEVOFLOXACIN] yielded an MIC (Staphylococcus aureus) of 0.78 µg/mL, an MIC (Salmonella) of 0.098 µg/mL and an MIC [1] of 0.78 µg/mL. For the same compound, the MIC (Klebsiella pneumoniae) was 0.098 µg/mL, the MIC (Shigella boydii) was 0.098 µg/mL and the MIC (Streptococcus pneumoniae) was 0.195 µg/mL.
With C[C@H]1COc2c(C3(N)CC3)c(F)cc3c(=O)c(C(=O)O)cn1c23 [PAZUFLOXACIN] the MIC (Staphylococcus aureus) was 0.195 µg/mL (≈ 0.613 µM), the MIC (Salmonella) was 0.049 µg/mL (≈ 0.154 µM) and the MIC [1] was 0.39 µg/mL (≈ 1.23 µM). It also gave an MIC (Klebsiella pneumoniae) of 0.049 µg/mL (≈ 0.154 µM), an MIC (Shigella boydii) of 0.049 µg/mL (≈ 0.154 µM) and an MIC (Streptococcus pneumoniae) of 0.049 µg/mL (≈ 0.154 µM).
